# Source: US4118507A, “Benzodioxincarboxamide lipogenesis inhibitors” (Shell Oil Company, priority 1977, dated 1978)
# Key:
# [1] = system: lipogenesis in swine adipose tissue; experiment: percent inhibition of lipogenesis from radioactive glucose in pig (swine) adipose tissue slices; assay type: cell-based; settings: 100 micrograms per milliliter, 37° C., 2 hours
# Source text: (§1) The manner in which they cause this effect is not known with certainty; it is believed that they interfere with the synthesis of fatty acids in the tissues. Their effectiveness for this purpose has been ascertained by immersing samples of mammalian liver or adipose tissue in a liquid medium containing radioactive glucose and the test chemical for a period of time, then isolating the lipid from the treated tissue and determining the up-take of the radioactive carbon by means of scintillation counting techniques. These tests were conducted with both liver and adipose tissues, because in some animals the primary site of lipogenesis appears to be liver tissue, while in others it appears to be adipose tissue. The test animals were pigs, sheep, rabbits, cats and dogs.
# Described in more detail, the tests were conducted according to the following general procedure:
# Tissue slices (200 milligrams for liver; 150 milligrams for adipose tissue) were incubated, at 37° C. for 2 hours with shaking in 3 milliliters of Krebs-Ringer bicarbonate solution containing one-half the normal calcium ion concentration, 60 micromoles of glucose, 0.5 micro-Curie of glucose-U-^14 C, 300 microunits of insulin, and 5% dimethyl sulfoxide (DMSO). The test compounds were added as a solution or suspension in DMSO and were present at a concentration of 100 micrograms per milliliter of the incubation mixture.
# The incubation was terminated by addition of 0.25 milliliter of 1 N sulfuric acid. The resulting mixture was extracted with a total of 25 milliliters of chloroform:methanol (2:1, v/v). The extracts were washed according to Folch et al. (J. Biol. Chem., 226, 497-509, (1957)), air dried, and counted in a liquid scintillation counter with 15 milliliters of counting fluid (two parts toluene containing 0.4% w/v New England Nuclear Omnifluor: 1 part Triton X-100). The tests were conducted in triplicate and were accompanied by control tests in which all ingredients,proportions and conditions were the same except that no test compound was included. From the data obtained, the percent inhibition of lipid synthesis by the test compound was calculated in each case.
# Compound 1 was tested with respect to all of the indicated animal species. The other three compounds were tested only with respect to the pig.
# From these and other tests, it has been established that in pigs there is little lipogenic activity in the liver tissue. From these and other tests, it also has been established that swine adipose tissue utilizes glucose for lipogenesis, and to be the major site of fatty acid synthesis. The data obtained from the tests using adipose tissue and glucose are set out in Table 1, as the percent inhibition of lipogenesis compared to the results obtained in the control tests wherein only the test compound was omitted.
# [2] = system: lipogenesis from glucose in adipose tissue; experiment: inhibition of lipogenesis from glucose in dog adipose tissue slices; assay type: cell-based, dogs; settings: 100 micrograms per milliliter, 37° C., 2 hours
# Source text: as §1
# (§2) Described in more detail, the tests were conducted according to the following general procedure: […]
# (§3) The incubation was terminated by addition of 0.25 milliliter of 1 N sulfuric acid. […] The extracts were washed according to Folch et al. (J. Biol. Chem., 226, 497-509, (1957)), air dried, and counted in a liquid scintillation counter with 15 milliliters of counting fluid (two parts toluene containing 0.4% w/v New England Nuclear Omnifluor: 1 part Triton X-100). […] From the data obtained, the percent inhibition of lipid synthesis by the test compound was calculated in each case. […]
# [3] = system: swine adipose tissue lipid synthesis; experiment: in vivo inhibition of swine adipose tissue lipid synthesis (oral dosing in feed, lipogenesis in biopsy slices); settings: pigs, approximately 25 milligrams per kilogram per day in feed for seven days
# Experimental: Compound 1 also was tested to determine the in vivo inhibition of swine adipose tissue lipid synthesis, as follows: pigs weighing about 20 kilograms were administered a fixed drug dose of approximately 25 milligrams of drug per kilogram of animal body weight per day for seven consecutive days. The drug was formulated to contain 10% w active ingredient and was prepared as coarse granules using 4% w plasdene as the granulating agent and lactose as the carrier. […] The daily drug or placebo dose was added to 1.2 kilograms of swine ration; about one-third of the total was fed at 0800, 1200, and 1600 hours. Biopsy samples were obtained from the dorsal subcutaneous adipose tissue (ca. 1 gram) in the neck region before drug administration, after 7 days of drug administration, and 6 days after withdrawal of drug. Adipose tissue slices were prepared from the biopsy sample, and in vitro lipogenesis was determined with radioactive glucose as substrate. The incubation was similar to that previously described except there was no DMSO or test compound in the flasks.
# [4] = system: glucose incorporation into liver; experiment: inhibition of glucose incorporation into rabbit liver tissue slices; assay type: cell-based, rabbits; settings: 100 micrograms per milliliter, 37° C., 2 hours
# Source text: as §1, §2, §3
# [5] = system: glucose utilization in adipose tissue; experiment: inhibition of glucose utilization in cat adipose tissue slices; assay type: cell-based, cats; settings: 100 micrograms per milliliter, 37° C., 2 hours
# Source text: as §1, §2, §3
# [6] = system: lipogenesis from glucose in the liver; experiment: inhibition of lipogenesis from glucose in cat liver tissue slices; assay type: cell-based, cats; settings: 100 micrograms per milliliter, 37° C., 2 hours
# Source text: as §1, §2, §3
# [7] = system: glucose incorporation in the liver; experiment: inhibition of glucose incorporation into lipids in sheep liver tissue slices; assay type: cell-based; settings: 100 micrograms per milliliter, 37° C., 2 hours
# Source text: as §1, §2, §3
# [8] = system: glucose incorporation in adipose tissue; experiment: inhibition of glucose incorporation into lipids in sheep adipose tissue slices; assay type: cell-based; settings: 100 micrograms per milliliter, 37° C., 2 hours
# Source text: as §1, §2, §3
# [9] = system: glucose incorporation into adipose tissue; experiment: inhibition of glucose incorporation into rabbit adipose tissue slices; assay type: cell-based, rabbits; settings: 100 micrograms per milliliter, 37° C., 2 hours
# Source text: as §1, §2, §3
smiles,measurement,setting,value
"C=CCNC(=O)[C@@H]1Oc2ccccc2O[C@@H]1C (relative stereo) [Compound 4, 2,3-dihydro-3-methyl-N-(2-propenyl)-1,4-benzodioxin-2-carboxamide cis isomer]",Percent Inhibition of lipogenesis compared to control,[1],68%
"C=CCNC(=O)C1COc2cc(Cl)ccc2O1 (centres unmarked) [Compound 3A, 6-chloro-2,3-dihydro-N-(2-propenyl)-1,4-benzodioxin-2-carboxamide]",Percent Inhibition of lipogenesis compared to control,[1],38%
"C=CCNC(=O)C1COc2cc(C)ccc2O1 (centres unmarked) [Compound 6, 2,3-dihydro-6-methyl-N-(2-propenyl)-1,4-benzodioxin-2-carboxamide]",Percent Inhibition of lipogenesis compared to control,[1],80%
C=CCNC(=O)C1COc2ccc(C)cc2O1 (centres unmarked) [Compound 7],Percent Inhibition of lipogenesis compared to control,[1],55%
"C=CCNC(=O)C1(C)COc2ccccc2O1 (centres unmarked) [Compound 2, 2,3-dihydro-N-(2-propenyl)-2-methyl-1,4-benzodioxin-2-carboxamide]",Percent Inhibition of lipogenesis compared to control,[1],41%
"C=CCNC(=O)C1COc2ccccc2O1 (centres unmarked) [Compound 1, 2,3-dihydro-N-(2-propenyl)-1,4-benzodioxin-2-carboxamide]",inhibition of lipogenesis from glucose in adipose tissue,[2],54%
same,Percent Inhibition of lipogenesis compared to control,[1],75%
same,"effect on lipogenic rate at day 13, compared to control animals",[3]; biopsy 6 days after withdrawal,had significantly reduced the lipogenic rate at day 13
same,"effect on lipogenesis at day 7, compared to control animals",[3]; biopsy after 7 days of administration,had not significantly affected lipogenesis at day 7
same,inhibition of glucose incorporation into liver,[4],32%
same,inhibition of glucose utilization in adipose tissue,[5],did not inhibit glucose utilization in adipose tissue
same,inhibition of lipogenesis from glucose in the liver,[6],35%
same,inhibition of glucose incorporation in the liver,[7],27%
same,inhibition of glucose incorporation in adipose tissue,[8],50%
same,inhibition of glucose incorporation into adipose tissue,[9],30%
"C=CCNC(=O)C1COc2ccc(F)cc2O1 (centres unmarked) [Compound 8, 7-fluoro-2,3-dihydro-N-(2-propenyl)-1,4-benzodioxin-2-carboxamides]",Percent Inhibition of lipogenesis compared to control,[1],72%
"C=CCNC(=O)C1COc2cc(C(C)(C)C)ccc2O1 (centres unmarked) [Compound 5, 6-(1,1-dimethylethyl)-2,3-dihydro-N-(2-propenyl)-1,4-benzodioxin-2-carboxamide]",Percent Inhibition of lipogenesis compared to control,[1],36%
